According to US7807679B2, “Piperazine derivatives and their use in controlling pests” (Syngenta Crop Protection, Inc., priority 2004, dated 2010):

How the values were obtained:
Assay type in all cases: in vivo
[1] = tested on: Heliothis virescens (Tobacco Budworm); test: Heliothis virescens egg test on artificial diet; conditions: 96 h, 200 ppm by pipetting, eggs (0-24 h old) on artificial diet, egg mortality, larval mortality, growth regulation after 4 days
Method: Eggs (0-24 h old) were placed in 24-well microtiter plate on artificial diet and treated with test solutions at an application rate of 200 ppm by pipetting. After an incubation period of 4 days, samples were checked for egg mortality, larval mortality, and growth regulation. The following compounds gave at least 80% control of Heliothis virescen: • I-3, I-6, I-7, I-26, I-29, I-30, I-47, I-49, I-52, I-53, I-72, I-75, I-417, I-532, I-578, I-785, I-854, I-877, III-49, V-49, XII-49, XIV-26, XIV-49, XV-26, XVI-26, XVII-26, XXIV-2, XXIV-46, XXIV-90, XXIV-93, XXIV-94, XXV-2, XXV-26, XXV-49 and XXV-68.

[2] = tested on: Aedes aegypti (Yellow Fever Mosquito); test: Aedes aegypti larvae test in microtiter plates; conditions: 48 h, larvae (L2) with nutrition mixture, mortality and growth inhibition 2 days later
Source text: 10-15 Aedes larvae (L2) together with a nutrition mixture are placed in 96-well microtiter plates. Test solutions at an application rate of 2 ppm are pipetted into the wells. 2 days later, insects were checked for mortality and growth inhibition. The following compounds gave at least 80% control of Aedes aegypti • I-3, I-26, I-29, I-30, I-49, I-52, I-53, I-72, I-75, I-76, III-49, III-118, XIV-26, XV-26, XXIV-2, XXIV-46, XXIV-90, XXIV-93, XXIV-94 and XXV-68.

[3] = tested on: Spodoptera littoralis (Egyptian Cotton Leafworm); test: Spodoptera littoralis cotton leaf disc spray test; conditions: foliar, 72 h, 200 ppm sprayed on cotton leaf discs, 5 L1 larvae, mortality, repellent effect, feeding behaviour, growth regulation 3 days after treatment
Source text: Spodoptera littoralis (Egyptian Cotton Leafworm)
Cotton leaf discs were placed on agar in a 24-well microtiter plate and sprayed with test solutions at an application rate of 200 ppm. After drying, the leaf discs were infested with 5 L1 larvae. The samples were checked for mortality, repellent effect, feeding behaviour, and growth regulation 3 days after treatment (DAT). The following compounds gave at least 80% control of Spodoptera littoralis: • I-3, I-26, I-29, I-30, I-49, I-52, I-53, I-75, I-417, I-532, I-578, I-785, I-854, I-877, II-49, III-49, V-49, XII-49, XIV-26, XV-26, XXIV-2, XXIV-46, XXIV-90, XXIV-93, XXIV-94, XXV-26 and XXV-49.

[4] = tested on: Myzus persicae (Green Peach Aphid); test: Myzus persicae sunflower leaf disc spray test; conditions: foliar, 144 h, 200 ppm sprayed on sunflower leaf discs, aphid population of mixed ages, mortality after 6 DAT
Method: Sunflower leaf discs were placed on agar in a 24-well microtiter plate and sprayed with test solutions at an application rate of 200 ppm. After drying, the leaf discs were infested with an aphid population of mixed ages. After an incubation period of 6 DAT, samples were checked for mortality. The following compounds gave at least 80% control of Myzus persicae: • I-3, I-26, I-29, […], I-30, I-49, I-52, I-53, I-72, I-75, III-49, V-49, XXIV-46, XXIV-90 and XXIV-94.

Compound	pest or weed control at 200 ppm [1] [%]	pest or weed control at 2 ppm [2] [%]	pest or weed control at 200 ppm [3] [%]	pest or weed control at 200 ppm [4] [%]
O=C(Nc1ccccc1N1CCN(C/C=C/c2ccc(Cl)cc2)CC1)c1ccnc(Cl)c1 [Compound I-3, 2-chloro-N-(2-{4-[(E)-3-(4-chloro-phenyl)-allyl]-piperazin-1-yl}-phenyl)-isonicotinamide]	≥ 80	≥ 80	≥ 80	≥ 80
O=C(Nc1ccccc1N1CCN(C/C=C/c2ccc(C(F)(F)F)cc2)CC1)c1ccnc(Cl)c1 [Compound I-6, 2-chloro-N-(2-{4-[(E)-3-(4-trifluoromethyl-phenyl)-allyl]-piperazin-1-yl}-phenyl)-isonicotinamide]	≥ 80	–	–	–
O=C(Nc1ccccc1N1CCN(C/C=C/c2ccc(OC(F)(F)F)cc2)CC1)c1ccnc(Cl)c1 [Compound I-7, 2-chloro-N-(2-{4-[(E)-3-(4-trifluoromethoxy-phenyl)-allyl]-piperazin-1-yl}-phenyl)-isonicotinamide]	≥ 80	–	–	–
O=C(Nc1ccc(F)cc1N1CCN(C/C=C/c2ccc(Cl)cc2)CC1)c1ccnc(Cl)c1 [Compound I-26, 2-chloro-N-(4-fluoro-2-{4-[(E)-3-(4-chloro-phenyl)-allyl]-piperazin-1-yl}-phenyl)-isonicotinamide]	≥ 80	≥ 80	≥ 80	≥ 80
O=C(Nc1ccc(F)cc1N1CCN(C/C=C/c2ccc(C(F)(F)F)cc2)CC1)c1ccnc(Cl)c1 [Compound I-29, 2-chloro-N-(4-fluoro-2-{4-[(E)-3-(4-trifluoromethyl-phenyl)-allyl]-piperazin-1-yl}-phenyl)-isonicotinamide]	≥ 80	≥ 80	≥ 80	≥ 80
O=C(Nc1ccc(F)cc1N1CCN(C/C=C/c2ccc(OC(F)(F)F)cc2)CC1)c1ccnc(Cl)c1 [Compound I-30, 2-chloro-N-(4-fluoro-2-{4-[(E)-3-(4-trifluoromethoxy-phenyl)-allyl]-piperazin-1-yl}-phenyl)-isonicotinamide]	≥ 80	≥ 80	≥ 80	≥ 80
O=C(Nc1ccc(Cl)cc1N1CCN(Cc2ccc(Cl)cc2)CC1)c1ccnc(Cl)c1 [Compound I-47, 2-Chloro-N-{4-chloro-2-[4-(4-chloro-benzyl)-piperazin-1-yl}-phenyl)-isonicotinamide]	≥ 80	–	–	–
O=C(Nc1cc(F)ccc1N1CCN(C/C=C/c2ccc(Cl)cc2)CC1)c1ccnc(Cl)c1 [Compound I-72, 2-chloro-N-(5-fluoro-2-{4-[(E)-3-(4-chloro-phenyl)-allyl]-piperazin-1-yl}-phenyl)-isonicotinamide]	≥ 80	≥ 80	–	≥ 80
O=C(Nc1cc(F)ccc1N1CCN(C/C=C/c2ccc(OC(F)(F)F)cc2)CC1)c1ccnc(Cl)c1 [Compound I-76, 2-chloro-N-(5-fluoro-2-{4-[(E)-3-(4-trifluoromethoxy-phenyl)-allyl]-piperazin-1-yl)-phenyl)-isonicotinamide]	–	≥ 80	–	–
O=C(Nc1cccnc1N1CCN(C/C=C/c2ccc(Cl)cc2)CC1)c1ccnc(Cl)c1 [XXIV-2, 2-chloro-N-(2-{4-[(E)-3-(4-chloro-phenyl)-allyl]-piperazin-1-yl}-pyridin-3-yl)-isonicotinamide]	≥ 80	≥ 80	≥ 80	–
O=C(Nc1cc(Cl)cnc1N1CCN(C/C=C/c2ccc(C(F)(F)F)cc2)CC1)c1ccnc(Cl)c1 [XXIV-93, 2-chloro-N-(5-chloro-2-{4-[(E)-3-(4-trifluoromethyl-phenyl)-allyl]-piperazin-1-yl}-pyridin-3-yl)-isonicotinamide]	≥ 80	≥ 80	≥ 80	–
